Assay results reported in ChEMBL document CHEMBL1140459, “Synthesis of poison-frog alkaloids 233A, 235U, and 251AA and their inhibitory effects on neuronal nicotinic acetylcholine receptors” (Bioorg Med Chem Lett, 2007).

Assays:
[1] = biological target: Neuronal acetylcholine receptor subunit alpha-7 (Homo sapiens, UniProt P36544); assay: Inhibition of alpha-7 nAchR expressed in Xenopus laevis oocytes assessed as acetylcholine-induced current by voltage-clamp method; assay type: functional, cell-based, Oocyte
Neuronal acetylcholine receptor subunit alpha-7, sequence (P36544 whole entry): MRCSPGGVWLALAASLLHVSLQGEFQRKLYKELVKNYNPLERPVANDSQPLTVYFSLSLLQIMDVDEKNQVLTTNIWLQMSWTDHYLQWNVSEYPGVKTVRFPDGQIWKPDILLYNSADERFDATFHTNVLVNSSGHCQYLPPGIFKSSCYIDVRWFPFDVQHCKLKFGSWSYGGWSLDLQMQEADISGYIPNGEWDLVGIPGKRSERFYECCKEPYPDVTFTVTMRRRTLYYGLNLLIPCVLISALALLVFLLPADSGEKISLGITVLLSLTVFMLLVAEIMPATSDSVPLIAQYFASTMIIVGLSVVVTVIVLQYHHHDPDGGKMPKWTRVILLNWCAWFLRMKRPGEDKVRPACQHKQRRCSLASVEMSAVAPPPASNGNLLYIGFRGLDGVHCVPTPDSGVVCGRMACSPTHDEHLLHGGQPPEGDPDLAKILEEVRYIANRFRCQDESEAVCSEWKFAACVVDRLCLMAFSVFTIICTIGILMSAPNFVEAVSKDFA

[2] = biological target: Neuronal acetylcholine receptor; alpha4/beta2 (Homo sapiens, UniProt P17787+P43681); assay: Inhibition of alpha4beta2 nAchR expressed in Xenopus laevis oocytes assessed as acetylcholine-induced current by voltage-clamp method; assay type: cell-based, Oocyte
Neuronal acetylcholine receptor; alpha4/beta2, sequence (P17787 whole entry): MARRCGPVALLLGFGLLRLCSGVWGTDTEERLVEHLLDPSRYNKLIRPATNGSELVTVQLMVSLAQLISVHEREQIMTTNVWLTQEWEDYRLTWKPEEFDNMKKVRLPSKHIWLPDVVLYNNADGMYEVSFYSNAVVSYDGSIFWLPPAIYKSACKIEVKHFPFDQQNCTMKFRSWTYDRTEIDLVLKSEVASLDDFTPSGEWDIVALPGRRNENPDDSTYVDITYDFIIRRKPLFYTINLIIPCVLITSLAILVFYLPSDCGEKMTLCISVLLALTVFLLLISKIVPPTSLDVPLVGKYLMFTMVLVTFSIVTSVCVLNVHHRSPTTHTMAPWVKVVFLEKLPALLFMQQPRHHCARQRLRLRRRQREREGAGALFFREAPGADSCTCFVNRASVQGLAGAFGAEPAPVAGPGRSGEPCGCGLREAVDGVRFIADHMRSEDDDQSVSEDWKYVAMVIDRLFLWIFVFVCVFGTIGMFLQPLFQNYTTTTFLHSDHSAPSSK
Neuronal acetylcholine receptor; alpha4/beta2, sequence (P43681 whole entry): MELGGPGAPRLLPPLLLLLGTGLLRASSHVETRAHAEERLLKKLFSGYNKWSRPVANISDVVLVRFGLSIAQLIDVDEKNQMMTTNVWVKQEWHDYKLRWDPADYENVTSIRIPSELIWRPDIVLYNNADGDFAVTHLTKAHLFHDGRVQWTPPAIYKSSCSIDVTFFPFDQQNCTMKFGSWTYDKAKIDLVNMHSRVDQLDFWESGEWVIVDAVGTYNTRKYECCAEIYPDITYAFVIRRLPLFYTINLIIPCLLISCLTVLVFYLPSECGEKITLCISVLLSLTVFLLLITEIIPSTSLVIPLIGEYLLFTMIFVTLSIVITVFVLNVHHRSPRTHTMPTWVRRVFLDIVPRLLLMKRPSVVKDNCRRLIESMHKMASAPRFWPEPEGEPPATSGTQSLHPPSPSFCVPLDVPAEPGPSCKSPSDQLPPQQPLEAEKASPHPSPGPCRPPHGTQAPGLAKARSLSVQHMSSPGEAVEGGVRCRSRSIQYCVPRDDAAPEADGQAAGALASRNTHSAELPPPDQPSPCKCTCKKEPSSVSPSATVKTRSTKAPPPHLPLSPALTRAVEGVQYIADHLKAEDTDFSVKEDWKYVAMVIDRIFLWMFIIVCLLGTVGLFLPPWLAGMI

| SMILES | IC50 [1] [µM] | IC50 [2] [µM] |
| --- | --- | --- |
| C#CCCC[C@@H]1CC[C@@H](CC)[C@@H]2CCCCN12 | 7.4 | 5.1 |
| C=CCCC[C@@H]1CC[C@@H](CC)[C@@H]2CCCCN12 | 5.2 | 3.5 |
| CCCCCC[C@@H]1CC[C@@H](CC)[C@@H]2CCCCN12 | 4.1 | 2.5 |
